Experiment in all cases: NCI anticancer screen, dose series, 48 h
For assay [1], the system named is SK-MEL-2 melanoma.
For assay [2], the system named is NCI-H460 lung.
Assay [3] relates to MALME-3M melanoma.
The subject of assay [4] is CCRF-CEM leukemia.
In assay [5] the test system is HCT-15 colon.
For assay [6], the system named is CAKI-1 renal.
Assay [7] deals with SF-539 CNS.
Assay [8] has as its system MDA-MB-435.

From PubChem BioAssay (NCI) come the findings set out here.

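Assay format: 96-well plates, 48-hour exposure. At the GI50, growth is halved. TGI: concentration producing complete growth inhibition.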 Where a SMILES comes first, the peptide text is derived from it.

`Cc1ccc(F)c2[nH]c(-c3ccccc3)cc(=O)c12`: the TGI in assay [1], in assay [2], in assay [3], in assay [4], in assay [5] and in assay [6] was more than 100 µM in each case. In addition, the TGI is 28.5 µM in assay [7] and more than 100 µM in assay [8].
As to `Fc1ccccc1-c1cc(=S)c2cc3c(cc2[nH]1)OCO3`, the TGI was more than 76.7 µM in assay [1]; more than 100 µM in assay [2]; more than 100 µM in assay [3]; more than 100 µM in assay [4]; more than 100 µM in assay [5]; more than 100 µM in assay [6]. In addition, the TGI in assay [7] is more than 89 µM; in assay [8], more than 23.6 µM.
Regarding `CCc1cc2c(cc1C(=O)CCC(=O)O)CC1(C2)Cc2cc(CC)c(C(=O)CCC(=O)O)cc2C1`, the TGI in assay [1], in assay [2], in assay [3], in assay [4], in assay [5] and in assay [6] was more than 100 µM each time. For the same compound, the TGI in assay [7] and in assay [8] was more than 100 µM throughout.
Consider `C[C@H](CCC(=O)O)[C@H]1CC[C@H]2[C@@H]3[C@@H](O)C[C@@H]4C[C@H](O)CC[C@]4(C)[C@H]3C[C@H](O)[C@]12C`, for which the TGI in assay [1], in assay [2], in assay [3], in assay [4], in assay [5] and in assay [6] was more than 100 µM each time. Also, the TGI in assay [7] and in assay [8] was more than 100 µM in each case.
In the case of `CCCC(=O)Oc1c2ccsc2c(OC(=O)CCC)c2ccsc12`, the TGI in assay [1] was found to be 1.86 µM; in assay [2], 3.12 µM; in assay [3], 0.699 µM; in assay [4], 9.13 µM; in assay [5], 4.59 µM; in assay [6] it was 11.7 µM. For the same compound, the TGI in assay [7] turned out to be 2.16 µM; in assay [8], 0.586 µM.
For the compound `CC(=O)NC(CS)C(=O)NC(CO)C(=O)NC(CO)C(=O)NC(Cc1c[nH]c2ccccc12)C(=O)N1CCCC1C(=O)NC(CO)C(=O)NC(Cc1c[nH]c2ccccc12)C(=O)NC(Cc1c[nH]cn1)C(=O)NC(CO)C(=O)NC(Cc1c[nH]c2ccccc12)C(=O)NCC(=O)NCC(=O)NC(C)C(=O)NC(CCC(N)=O)C(=O)NC(CCCCN)C(=O)NC(C)C(=O)NC(CCCNC(=N)N)C(=O)NC(CCCCN)C(N)=O` (stereo unspecified) (Ac-CSSWPSWHSWGGAQKARK-NH2; configuration not given here), the TGI in assay [1] was more than 50 µM; in assay [2], 35.5 µM; in assay [3], 20.3 µM; in assay [4], more than 50 µM; in assay [5], more than 50 µM; in assay [6] it was 33.6 µM. For the same compound, the TGI in assay [7] and in assay [8] was more than 50 µM each time.
Consider `COc1ccc(CC2Cc3ccccc3CC(=O)N2)cc1OC` (stereo unspecified), for which the TGI in assay [1], in assay [2], in assay [3], in assay [4], in assay [5] and in assay [6] was more than 100 µM in each case. Moreover, the TGI in assay [7] and in assay [8] was more than 100 µM throughout.
With `Cc1nc(-c2cccnc2)sc1C(=O)CC(=O)C(=O)Nc1cccc(NC(=O)C(=O)CC(=O)c2sc(-c3cccnc3)nc2C)n1`, the TGI in assay [1], in assay [2], in assay [3], in assay [4], in assay [5] and in assay [6] was more than 100 µM throughout. For the same compound, the TGI in assay [7] and in assay [8] was more than 100 µM in each case.
In the case of `CC12CP(=O)(O)CC1C2(Cl)Cl` (stereo unspecified), the TGI in assay [1], in assay [2], in assay [3], in assay [4], in assay [5] and in assay [6] was more than 100 µM each time. The TGI in assay [7] and in assay [8] was more than 100 µM throughout.
As to `CCOP(=O)(OCC)/C(=C\n1ccc(=O)[nH]c1=S)C(=O)OC`, the TGI in assay [1], in assay [2], in assay [3], in assay [4], in assay [5] and in assay [6] was more than 100 µM each time. Besides, the TGI in assay [7] and in assay [8] was more than 100 µM each time.
`Nc1ccc2nc3n(c2c1)C(c1c(F)cccc1F)SC3` (stereo unspecified): the TGI in assay [1], in assay [2], in assay [3], in assay [4], in assay [5] and in assay [6] was more than 100 µM in each case. In addition, the TGI in assay [7] and in assay [8] was more than 100 µM in each case.
On to `Cc1cc(C)n(CN(CCCCO)Cn2nc(C)cc2C)n1`, for which the TGI in assay [1] is 41.7 µM; in assay [2] it was more than 100 µM; in assay [3], 57.3 µM; in assay [4], 1.74 µM; in assay [5], 34.7 µM; in assay [6], 99.5 µM. Besides, the TGI turned out to be 36.2 µM in assay [7] and 38.4 µM in assay [8].
Take `CCOc1cc2c(cc1O)C=C[C@@H]1[C@@H]2CC[C@]2(C)[C@@H](O)CC[C@@H]12`: the TGI was 42 µM in assay [1]; 12.5 µM in assay [2]; 35.6 µM in assay [3]; more than 42.5 µM in assay [4]; 20.1 µM in assay [5]; 28.9 µM in assay [6]. The TGI in assay [7] amounted to 7.03 µM; in assay [8], 1.36 µM.
Take `O=C(N/N=C\c1ccc(N(CCCl)CCCl)cc1)c1cccnc1`: the GI50 in assay [1] is more than 100 µM; in assay [2] it was 3.83 µM; in assay [3] it was 55 µM; in assay [4] it was 5.91 µM; in assay [5], 37.1 µM; in assay [6], 8.53 µM. In addition, the figures for the GI50 in assay [7] and in assay [8] were 29.3 µM and 33.4 µM, respectively. Moreover, the TGI in assay [1], in assay [2], in assay [3], in assay [4], in assay [5] and in assay [6] was more than 100 µM in each case. In addition, the TGI in assay [7] and in assay [8] was more than 100 µM in each case.
In the case of `CCOC(=O)c1ccc(NCc2ccc3nc(OC)c(OC)nc3c2)cc1`, the TGI in assay [1], in assay [2], in assay [3], in assay [4], in assay [5] and in assay [6] was more than 100 µM in each case. Besides, the TGI in assay [7] and in assay [8] was more than 100 µM each time.
With `CN1/C(=C\N=O)C(C)(C)N(O)C1(C)C`, the TGI in assay [1], in assay [2], in assay [3], in assay [4], in assay [5] and in assay [6] was more than 100 µM throughout. Moreover, the TGI in assay [7] and in assay [8] was more than 100 µM throughout.
`C=C(C)[C@@]12C[C@H](OC(=O)[C@H](O)[C@@H](NC(=O)c3ccccc3)c3ccccc3)C(C)=C1[C@@H](OC(C)=O)C(=O)[C@@]1(C)C([C@@H]2OC(=O)c2cc(F)cc(F)c2)C2(OC(C)=O)CO[C@@H]2C[C@@H]1O` (stereo partly specified): the TGI in assay [1] was 2.28 µM; in assay [2], 9.22 µM; in assay [3] it was more than 8.81 µM; in assay [4], 0.355 µM; in assay [5], more than 5.21 µM; in assay [6] it was more than 10 µM. Moreover, the values for the TGI in assay [7] and in assay [8] were 0.259 µM and 0.0818 µM, respectively.
For the compound `Cc1cn(CC2(CO)CCC2)c(=O)[nH]c1=O`, the TGI in assay [1], in assay [2], in assay [3], in assay [4], in assay [5] and in assay [6] was more than 100 µM in each case. The TGI in assay [7] and in assay [8] was more than 100 µM in each case.
For `O=C1NCN(c2ccccc2)C12CCN(CCCN1CCN(CCOC(c3ccccc3)c3ccccc3)CC1)CC2`, the TGI in assay [1] stood at 6.75 µM; in assay [2], 7.45 µM; in assay [3], 5.54 µM; in assay [4] it was 3.59 µM; in assay [5] it was 5.19 µM; in assay [6], 7.43 µM. In addition, the TGI was found to be 2.48 µM in assay [7] and 2.46 µM in assay [8].
Regarding `CCOC(=O)c1ccc(Nc2nc3ccccc3n3cccc23)cc1`, the TGI is more than 100 µM in assay [1]; more than 100 µM in assay [2]; more than 100 µM in assay [3]; 0.108 µM in assay [4]; more than 100 µM in assay [5]; more than 100 µM in assay [6]. For the same compound, the TGI in assay [7] and in assay [8] was more than 100 µM throughout.
Turning to `NC1=Nc2ccccc2Sc2nccn21`, the TGI is more than 100 µM in assay [1]; more than 100 µM in assay [2]; 34.6 µM in assay [3]; 75.3 µM in assay [4]; 59.7 µM in assay [5]; 64.9 µM in assay [6]. Also, the TGI was found to be 56.1 µM in assay [7] and 59 µM in assay [8].
